pIC50: −log10 of the molar value. Where two headings read alike, the source gives them in different places.
Experiments:
KRAS-WT = KRAS-WT (Homo sapiens, UniProt P01116); test: SOS-catalyzed nucleotide exchange assay (Procedure A, TR-FRET), KRAS-WT; format: biochemical; details: nucleotide exchange, read-out: KRAS WT GNE IC50
Summary of the method: (§1)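 Inhibitors stabilizing the Bodipy-GDP state are detected as retained TR-FRET from a preformed biotinylated RAS/Tb-streptavidin complex. They are preincubated 60 min at room temperature, then human SOS and 3 mM GTP are added. G12V runs 90 min at 1.25 nM RAS/160 nM SOS. G12C (3 nM), WT (1 nM) and NRAS (1.25 nM) run 60 min with 40 nM SOS.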

KRAS-G12V = KRAS-G12V (Homo sapiens, UniProt P01116, G12V); test: SOS-catalyzed nucleotide exchange assay (Procedure A, TR-FRET), KRAS-G12V; format: biochemical; details: nucleotide exchange, read-out: KRAS G12V GNE IC50
Summary of the method: as §1

AsPC-1 cells = test: Cellular phospho-ERK assay, AsPC-1 cells (homozygous KRAS-G12D); format: cell-based; details: Homo sapiens, ASPC1, 2 h, read-out: AsPC1 pERK IC50
Summary of the method: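 10k–15k cells/well, o/n attach; cpd 2 h, 37 °C, 10-pt 1:3 from 30 μM final; lyse with protease/phosphatase inhibitors 30 min RT; multiplex SureFire p-ERK + total ERK; IC50 via 4PL on ratio.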

KRAS-G12D = KRAS-G12D (Homo sapiens, UniProt P01116, G12D); test: SOS-catalyzed nucleotide exchange assay (Procedure A, TR-FRET), KRAS-G12D; format: biochemical; details: nucleotide exchange, read-out: KRAS G12D GNE IC50
Summary of the method: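 Signal ratio (520/495 nm, excitation 340 nm) reports Bodipy-GDP retention on biotinylated RAS after SOS-catalyzed exchange with 3 mM GTP. SOS was 40 nM, except 160 nM for G12V. Room-temperature exchange lasted 60 min (90 min for G12V), following a 60 min compound preincubation.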

Sequence of KRAS-G12V (P01116 with tags, fused parts or gaps isoform P01116-2 G12V): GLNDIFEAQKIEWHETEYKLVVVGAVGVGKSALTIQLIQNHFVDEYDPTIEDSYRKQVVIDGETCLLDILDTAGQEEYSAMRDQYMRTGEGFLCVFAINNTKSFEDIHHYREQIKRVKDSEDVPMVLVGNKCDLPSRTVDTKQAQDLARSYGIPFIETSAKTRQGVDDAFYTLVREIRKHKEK
Sequence of KRAS-G12D (P01116 with tags, fused parts or gaps isoform P01116-2 G12D): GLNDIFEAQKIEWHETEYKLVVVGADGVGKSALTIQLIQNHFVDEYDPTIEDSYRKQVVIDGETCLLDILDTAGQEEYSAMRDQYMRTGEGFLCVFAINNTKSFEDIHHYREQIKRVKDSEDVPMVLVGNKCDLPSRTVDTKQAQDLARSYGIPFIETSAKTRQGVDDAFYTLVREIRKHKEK
Sequence of KRAS-WT (P01116 with tags, fused parts or gaps isoform P01116-2): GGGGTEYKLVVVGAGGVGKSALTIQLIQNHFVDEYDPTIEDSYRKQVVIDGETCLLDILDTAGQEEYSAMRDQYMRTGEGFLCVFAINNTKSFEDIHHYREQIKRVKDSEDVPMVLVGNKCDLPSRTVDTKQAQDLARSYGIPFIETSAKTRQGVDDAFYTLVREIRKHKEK

pIC50 (KRAS-WT)	pIC50 (KRAS-G12V)	pIC50 (AsPC-1 cells; 2 hours compound incubation)	pIC50 (KRAS-G12D)	pIC50 (AsPC-1 cells; KRAS-G12D, 2 hours)	Structure (SMILES)
7.05	7.48	6.66	7.48	–	C[C@@]1(O)COCCN(c2nc(OC[C@@]34CCCN3C[C@H](F)C4)nc3sc4c(-c5c6ccccc6cc6[nH]ncc56)nccc4c23)C1 [Ex-170, (6S)-4-(8-(1H-benzo[f]indazol-4-yl)-2-(((2R,7aS)-2-fluorotetrahydro-1H-pyrrolizin-7a(5H)-yl)methoxy)pyrido[4′,3′:4,5]thieno[2,3-d]pyrimidin-4-yl)-6-methyl-1,4-oxazepan-6-ol]
7.09	7.23	6.43	7.77	–	C[C@@H]1CCN1C[C@@]1(COc2nc(N3CCOC[C@@](C)(O)C3)c3c(n2)sc2c(-c4c(C5(F)CC5)c(Cl)cc5[nH]ncc45)nccc23)CC1(F)F [Ex-261, (6S)-4-(8-(6-chloro-5-(1-fluorocyclopropyl)-1H-indazol-4-yl)-2-(((R)-2,2-difluoro-1-(((R)-2-methylazetidin-1-yl)methyl)cyclopropyl)metho-xy)pyrido[4′,3′:4,5]thieno[2,3-d]pyrimidin-4-yl)-6-methyl-1,4-oxazepan-6-ol]
6.35	6.40	5.38	6.95	–	C[C@@]1(O)COCCN(c2nc(OC[C@]3(CN4CC(C#N)C4)CC3(F)F)nc3sc4c(-c5c(C6(F)CC6)c(Cl)cc6[nH]ncc56)nccc4c23)C1 [Ex-238, 1-(((IR)-1-(((8-(6-chloro-5-(1-fluorocyclopropyl)-1H-indazol-4-yl)-4-((S)-6-hydroxy-6-methyl-1,4-oxazepan-4-yl)pyrido[4′,3′:4,5]thieno[2,3-d]pyrimidin-2-yl)oxy)methyl)-2,2-difluorocyclopropyl)methyl]a-zetidine-3-carbonitrile]
6.31	6.73	5.92	7.38	–	CO[C@]12CC[C@H]1CN(C[C@@]1(COc3nc(N4CCOC[C@@](C)(O)C4)c4c(n3)sc3c(-c5c(C6(F)CC6)c(Cl)cc6[nH]ncc56)nccc34)CC1(F)F)C2 [Ex-260, (6S)-4-(8-(6-chloro-5-(1-fluorocyclopropyl)-1H-indazol-4-yl)-2-(((R)-2,2-difluoro-1-(((1R,5S)-1-methoxy-3-azabicyclo[3.2.0]heptan-3-yl)methyl)cyclopropyl)metho-xy)pyrido[4′,3′:4,5]thieno[2,3-d]pyrimidin-4-yl)-6-methyl-1,4-oxazepan-6-ol]
6.59	6.78	–	6.92	6.20	Cc1cc2[nH]ncc2c(-c2nccc3c2sc2nc(OC[C@@]45CCCN4C[C@H](F)C5)nc(N4CCOC[C@@](C)(O)C4)c23)c1C(C)(F)F [Ex-41, (6S)-4-(8-(5-(1,1-difluoroethyl)-6-methyl-1H-indazol-4-yl)-2-(((2R,7aS)-2-fluorotetrahydro-1H-pyrrolizin-7a(5H)-yl)methoxy)pyrido[4′,3′:4,5]thi-eno[2,3-d]pyrimidin-4-yl)-6-methyl-1,4-oxazepan-6-ol]
6.32	7.03	6.21	6.85	–	Cc1cc2[nH]ncc2c(-c2nccc3c2sc2nc(OC[C@@]45CCCN4C[C@H](F)C5)nc(N4CCC[C@]5(CCO5)C4)c23)c1C(F)(F)F [Ex-200]
7.09	7.35	–	7.41	6.12	CO[C@@H]1C[C@@H](COc2nc(N3CCOC[C@@](C)(O)C3)c3c(n2)sc2c(-c4c(C5CC5)c(C(F)(F)F)cc5[nH]ncc45)nccc23)N(C)C1 [Ex-85, (6S)-4-(8-(5-cyclopropyl-6-(trifluoromethyl)-1H-indazol-4-yl)-2-(((2S,4R)-4-methoxy-1-methylpyrrolidin-2-yl)methoxy)pyrido[4′,3′:4,5]thi-eno[2,3-d]pyrimidin-4-yl)-6-methyl-1,4-oxazepan-6-ol]
6.80	7.48	6.53	7.60	–	C[C@@]1(O)COCCN(c2nc(OC[C@]3(CN4CC5CC5C4)CC3(F)F)nc3sc4c(-c5c(C6(F)CC6)c(Cl)cc6[nH]ncc56)nccc4c23)C1 (stereo partly drawn) [Ex-237, (6S)-4-(2-(((1R)-1-((3-azabicyclo[3.1.0]hexan-3-yl)methyl)-2,2-difluorocyclopropyl)methoxy)-8-(6-chloro-5-(1-fluorocyclopropyl)-1H-indazol-4-yl)pyrido[4′,3′:4,5]thieno[2,3-d]pyrimidin-4-yl)-6-methyl-1,4-oxazepan-6-ol]
7.26	7.48	–	7.51	6.23	C[C@H]1C[C@@H](COc2nc(N3CCOC[C@@](C)(O)C3)c3c(n2)sc2c(-c4c(C5CC5)c(C(F)(F)F)cc5[nH]ncc45)nccc23)N(C)C1 [Ex-82, (6S)-4-(8-(5-cyclopropyl-6-(trifluoromethyl)-1H-indazol-4-yl)-2-(((2S,4S)-1,4-dimethylpyrrolidin-2-yl)methoxy)pyrido[4′,3′:4,5]thi-eno[2,3-d]pyrimidin-4-yl)-6-methyl-1,4-oxazepan-6-ol]
5.73	6.51	5.85	7.01	–	C[C@H]1CN(C[C@@]2(COc3nc(N4CCOC[C@@](C)(O)C4)c4c(n3)sc3c(-c5c(C6(F)CC6)c(Cl)cc6[nH]ncc56)nccc34)CC2(F)F)[C@@H](C)CO1 [Ex-241, (6S)-4-(8-(6-chloro-5-(1-fluorocyclopropyl)-1H-indazol-4-yl)-2-(((R)-1-(((2S,5S)-2,5-dimethylmorpholino)methyl)-2,2-difluorocyclopropyl)methoxy)pyrido[4′,3′:4,5]thieno[2,3-d]pyrimidin-4-yl)-6-methyl-1,4-oxazepan-6-ol]
6.71	6.97	6.20	7.11	–	C=CC(F)(F)c1c(C)cc2[nH]ncc2c1-c1nccc2c1sc1nc(OC[C@@]34CCCN3C[C@H](F)C4)nc(N3CCOC[C@@](C)(O)C3)c12 [Ex-152, (6S)-4-(8-(5-(1,1-difluoroallyl)-6-methyl-1H-indazol-4-yl)-2-(((2R,7aS)-2-fluorotetrahydro-1H-pyrrolizin-7a(5H)-yl)methoxy)pyrido[4′,3′:4,5]thieno[2,3-d]pyrimidin-4-yl)-6-methyl-1,4-oxazepan-6-ol]
6.64	6.63	–	6.90	5.89	C[C@@]1(O)COCCN(c2nc(OC[C@@]34CCCN3C[C@H](F)C4)nc3sc4c(-c5c(C(F)F)c(C(F)(F)F)cc6[nH]ncc56)nccc4c23)C1 [Ex-61, (6S)-4-(8-(5-(difluoromethyl)-6-(trifluoromethyl)-1H-indazol-4-yl)-2-(((2R,7aS)-2-fluorotetrahydro-1H-pyrrolizin-7a(5H)-yl)methoxy)pyrido[4′,3′:4,5]thi-eno[2,3-d]pyrimidin-4-yl)-6-methyl-1,4-oxazepan-6-ol]
6.98	7.34	6.61	7.53	–	C=C1CN2C[C@@H](F)C[C@@]2(COc2nc(N3CCOC[C@@](C)(O)C3)c3c(n2)sc2c(-c4c(C5CC5)c(Cl)cc5[nH]ncc45)nccc23)C1 [Ex-222, (6S)-4-(8-(6-chloro-5-cyclopropyl-1H-indazol-4-yl)-2-(((2S,7aR)-2-fluoro-6-methylenetetra-hydro-1H-pyrrol-izin-7a(5H)-yl)methoxy)pyrido [4′,3′:4,5]thieno[2,3-d]pyrimidin-4-yl)-6-methyl-1,4-oxaze-pan-6-ol]
6.43	6.56	5.93	7.01	–	C[C@@H]1CN(C[C@@]2(COc3nc(N4CCOC[C@@](C)(O)C4)c4c(n3)sc3c(-c5c(C6(F)CC6)c(Cl)cc6[nH]ncc56)nccc34)CC2(F)F)C[C@H](C)O1 [Ex-246, (6S)-4-(8-(6-chloro-5-(1-fluorocyclopropyl)-1H-indazol-4-yl)-2-(((R)-1-(((2R,6S)-2,6-dimethylmorpholino)methyl)-2,2-difluorocyclopropyl)methoxy)pyrido[4′,3′:4,5]thieno[2,3-d]pyrimidin-4-yl)-6-methyl-1,4-oxazepan-6-ol]

Structure (SMILES)	pIC50 (KRAS-WT)	pIC50 (KRAS-G12V)	pIC50 (AsPC-1 cells; 2 hours compound incubation)	pIC50 (KRAS-G12D)	pIC50 (AsPC-1 cells; KRAS-G12D, 2 hours)
C[C@@]1(O)COCCN(c2nc(OC[C@]3(CN4[C@@H]5CC[C@H]4C[C@@H](F)C5)CC3(F)F)nc3sc4c(-c5c(C6(F)CC6)c(Cl)cc6[nH]ncc56)nccc4c23)C1 [Ex-242, (6S)-4-(8-(6-chloro-5-(1-fluorocyclopropyl)-1H-indazol-4-yl)-2-(((R)-2,2-difluoro-1-(((1R,3R,5S)-3-fluoro-8-azabicyclo[3.2.1]octan-8-yl)methyl)cyclopropyl)metho-xy)pyrido[4′,3′:4,5]thieno[2,3-d]pyrimidin-4-yl)-6-methyl-1,4-oxazepan-6-ol]	6.16	6.46	5.94	7.04	–
